# Experimental data reported in ChEMBL document CHEMBL1150131, “New cytotoxic bis 5-alkylresorcinol derivatives from the leaves of Oncostemon bojerianum from the Madagascar rainforest” (J Nat Prod, 2002).
# Test system: A2780
# Experiment: Cytotoxicity against human A2780 cells
# Assay type: functional, cell-based
row,Compound,IC50 [µg/mL]
1,COc1cc(O)cc(CCCCCCC/C=C\CCCCCCCc2cc(O)cc(O)c2)c1 [ONCOSTEMONOL D],10
2,COc1cc(O)cc(CCCCCCC/C=C\CCCCCCCc2cc(O)cc(OC)c2)c1 [ONCOSTEMONOL C],9.8
3,CC(=O)Oc1cc(O)cc(CCCCCCC/C=C\CCCCCCCc2cc(O)cc(O)c2)c1 [ONCOSTEMONOL B],10.2
4,Oc1cc(O)cc(CCCCC/C=C\CCCCCCCc2cc(O)cc(O)c2)c1,9.8
5,Oc1cc(O)cc(CCCCCCC/C=C\CCCCCCCCCc2cc(O)cc(O)c2)c1 [ONCOSTEMONOL H],9.4
6,Oc1cc(O)cc(CCCCCCCCC/C=C\CCCCCCCCCc2cc(O)cc(O)c2)c1 [ONCOSTEMONOL G],10.2
7,CC(=O)Oc1cc(O)cc(CCCCCCCCCCCCCCCCc2cc(O)cc(OC(C)=O)c2)c1 [ONCOSTEMONOL F],9.5
8,Oc1cc(O)cc(CCCCCCC/C=C\CCCCCCCc2cc(O)cc(O)c2)c1,10.2
9,CC(=O)Oc1cc(O)cc(CCCCCCC/C=C\CCCCCCCc2cc(O)cc(OC(C)=O)c2)c1 [ONCOSTEMONOL A],9.4
10,COc1cc(O)cc(CCCCCCC/C=C\CCCCCCCc2cc(OC)cc(OC)c2)c1 [ONCOSTEMONOL E],9.8
